For ten compounds, GI50 and TGI results are on record in PubChem BioAssay (NCI).

Some test systems named below: OVCAR-5 ovarian; HCT-116 colon; HOP-62 NSCLC; A498 renal; U251 CNS; SR leukemia; SF-268 CNS; NCI-H226 lung; SNB-19 CNS; MALME-3M melanoma.
Test in all cases: NCI-60 cell line screen, 48 h

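Five compound concentrations were applied to cells in 96-well plates for 48 hours; endpoints were derived by simple linear interpolation of the resulting dose-response curve. Abbreviation: GI50, concentration required for 50% inhibition of growth. At the TGI there is no net growth.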

Take `Nc1ccc(-c2nc3ccccc3[nH]2)c(O)c1`: the GI50 in the experiment with OVCAR-5 ovarian was 36.4 µM; in the experiment with HCT-116 colon it was 16.3 µM; with HOP-62 NSCLC it was 60.5 µM; in the experiment on A498 renal, 31.9 µM; in the experiment with U251 CNS, 60.3 µM; in the experiment with SR leukemia, 26.2 µM. Besides, the GI50 with SF-268 CNS was 27.6 µM; in the experiment on NCI-H226 lung, 35.5 µM; in the experiment with SNB-19 CNS, 66.8 µM. Moreover, the TGI with OVCAR-5 ovarian was over 100 µM; in the experiment on HCT-116 colon, 40.7 µM; in the experiment with HOP-62 NSCLC, over 100 µM; in the experiment with A498 renal, 68.5 µM; with U251 CNS it was over 100 µM; in the experiment on SR leukemia it was over 100 µM. Also, the TGI with SF-268 CNS, with NCI-H226 lung and with SNB-19 CNS was over 100 µM throughout.

As to `Nc1ccc(N=Nc2ccccc2)c(N)n1`, the GI50 in the experiment on OVCAR-5 ovarian was 40.3 µM; in the experiment with HCT-116 colon, 23 µM; with HOP-62 NSCLC, 33.9 µM; in the experiment on A498 renal, 12.9 µM; in the experiment with U251 CNS, 29.8 µM; in the experiment on SR leukemia it was 18.1 µM. Further, the GI50 was 16.8 µM in the experiment on SF-268 CNS, 62.6 µM in the experiment on NCI-H226 lung, 40.7 µM in the experiment with SNB-19 CNS and 48.5 µM in the experiment on MALME-3M melanoma. Also, the TGI with OVCAR-5 ovarian is over 100 µM; in the experiment on HCT-116 colon, 60.5 µM; in the experiment on HOP-62 NSCLC, over 100 µM; with A498 renal it was 39.8 µM; in the experiment on U251 CNS it was over 100 µM; with SR leukemia, over 100 µM. The TGI in the experiment on SF-268 CNS was 72.9 µM; in the experiment on NCI-H226 lung, over 100 µM; with SNB-19 CNS, over 100 µM; in the experiment on MALME-3M melanoma, over 100 µM.

As for `CCN(CC)CCOc1ccc(Nc2ncc3cc(-c4c(Cl)cccc4Cl)c(=O)n(CCOC)c3n2)cc1`, the GI50 was 0.137 µM with OVCAR-5 ovarian; 0.159 µM in the experiment on HCT-116 colon; 0.0715 µM in the experiment on HOP-62 NSCLC; 0.0235 µM in the experiment on A498 renal; 0.608 µM in the experiment with U251 CNS; 0.459 µM with SR leukemia. Also, the GI50 was 0.145 µM in the experiment with SF-268 CNS, 0.1 µM in the experiment on NCI-H226 lung, 0.458 µM with SNB-19 CNS and 0.39 µM in the experiment with MALME-3M melanoma. Moreover, the TGI in the experiment on OVCAR-5 ovarian was determined as 7.09 µM; with HCT-116 colon, 1.16 µM; with HOP-62 NSCLC it was 7.05 µM; with A498 renal, 0.16 µM; with U251 CNS, 5 µM; with SR leukemia, 2.15 µM. For the same compound, the TGI stood at 1.29 µM with SF-268 CNS, 7.89 µM in the experiment with NCI-H226 lung, 6.01 µM in the experiment on SNB-19 CNS and 3.95 µM in the experiment on MALME-3M melanoma.

Consider `CNS(=O)(=O)NN(C)S(=O)(=O)c1ccc(Cl)cc1`, for which the TGI with HCT-116 colon, with HOP-62 NSCLC, in the experiment with A498 renal, in the experiment on U251 CNS, in the experiment with SR leukemia and in the experiment on SF-268 CNS was over 100 µM throughout. In addition, the TGI with NCI-H226 lung, in the experiment on SNB-19 CNS and in the experiment on MALME-3M melanoma was over 100 µM each time.

For `COc1cc(C(=O)/C=C/c2c(-c3ccc(F)cc3)nc3sc(C)cn23)cc(OC)c1OC`, the GI50 in the experiment on OVCAR-5 ovarian was over 100 µM; with HCT-116 colon it was 2.92 µM; in the experiment with HOP-62 NSCLC, 85.1 µM; with U251 CNS, 4.07 µM; with SR leukemia it was 0.802 µM; in the experiment on SF-268 CNS, 15.2 µM. Besides, the GI50 in the experiment on NCI-H226 lung was 9.58 µM; with SNB-19 CNS, 87.7 µM; with MALME-3M melanoma, 2.69 µM. Moreover, the TGI with OVCAR-5 ovarian, with HCT-116 colon, with HOP-62 NSCLC, with U251 CNS, with SR leukemia and in the experiment with SF-268 CNS was over 100 µM throughout. The TGI in the experiment on NCI-H226 lung, in the experiment with SNB-19 CNS and with MALME-3M melanoma was over 100 µM in each case.

Consider `O=c1[nH]c(-c2ccccc2)nc2ccc(Cl)cc12`, for which the TGI with OVCAR-5 ovarian, in the experiment on HCT-116 colon, in the experiment on U251 CNS, in the experiment on SR leukemia, in the experiment with SF-268 CNS and with NCI-H226 lung was over 100 µM throughout. In addition, the TGI with SNB-19 CNS and in the experiment on MALME-3M melanoma was over 100 µM in each case.

As for `CCN(CC)c1ccc(N=C2C=CC(=O)c3ncccc32)c(C)c1`, the TGI with OVCAR-5 ovarian turned out to be 24.4 µM; in the experiment with HCT-116 colon, 6 µM; in the experiment on HOP-62 NSCLC it was 37.2 µM; in the experiment on U251 CNS, 19.6 µM; with SR leukemia it was 6.51 µM; with SF-268 CNS it was 21.3 µM. Besides, the figures for the TGI with NCI-H226 lung, with SNB-19 CNS and with MALME-3M melanoma were 38.8 µM, 29.8 µM and 12.5 µM, respectively.

On to `CCOC(=O)c1cc2c(n1Cc1cc(OC)cc(OC)c1)-c1oncc1CCC2`, for which the GI50 in the experiment on OVCAR-5 ovarian is 0.294 µM; in the experiment on HCT-116 colon it was 0.0588 µM; in the experiment on HOP-62 NSCLC, 0.242 µM; with A498 renal, 0.0469 µM; in the experiment with U251 CNS it was 0.255 µM; in the experiment on SR leukemia it was 0.0382 µM. In addition, the GI50 with SF-268 CNS was 0.243 µM; with NCI-H226 lung it was 23 µM; in the experiment with SNB-19 CNS, 0.844 µM. The TGI was over 100 µM in the experiment with OVCAR-5 ovarian; over 100 µM in the experiment with HCT-116 colon; over 100 µM in the experiment with HOP-62 NSCLC; 0.295 µM with A498 renal; over 100 µM in the experiment on U251 CNS; over 100 µM with SR leukemia. Moreover, the TGI with SF-268 CNS, with NCI-H226 lung and in the experiment with SNB-19 CNS was over 100 µM in each case.

Turning to `O=Nc1c(-c2cccc([N+](=O)[O-])c2)nc2cnccn12`, the TGI is 44 µM in the experiment with OVCAR-5 ovarian; 18.8 µM with HCT-116 colon; 90.1 µM in the experiment with HOP-62 NSCLC; 42.4 µM in the experiment on U251 CNS; 18.4 µM with SR leukemia; 79.4 µM with SF-268 CNS. Also, the TGI with NCI-H226 lung is 50.7 µM; with SNB-19 CNS, over 100 µM; in the experiment on MALME-3M melanoma it was 56.5 µM.

On to `OCc1cccc(-c2ccc3ncc(-c4nc(NC5CC5)ncc4F)n3c2)c1`, for which the GI50 in the experiment with HCT-116 colon was 0.182 µM; in the experiment on HOP-62 NSCLC it was 0.266 µM; in the experiment with A498 renal it was 0.152 µM; with U251 CNS it was 0.25 µM; in the experiment on SR leukemia it was 0.0541 µM; in the experiment with SF-268 CNS, 0.275 µM. The values for the GI50 in the experiment on NCI-H226 lung, in the experiment on SNB-19 CNS and with MALME-3M melanoma were 0.301 µM, 0.323 µM and 0.375 µM, respectively. The TGI was over 100 µM in the experiment on HCT-116 colon; 2.7 µM with HOP-62 NSCLC; 0.367 µM in the experiment with A498 renal; over 100 µM in the experiment on U251 CNS; over 38.9 µM in the experiment on SR leukemia; 0.801 µM with SF-268 CNS. The TGI was 1.47 µM in the experiment with NCI-H226 lung, 4.18 µM in the experiment on SNB-19 CNS and 1.06 µM in the experiment with MALME-3M melanoma.
